From ChEMBL document CHEMBL1141422, “Isolation and structures of erylosides from the Caribbean sponge Erylus formosus” (J Nat Prod, 2007)
Calls of active or inactive are those of the source. The rule behind the calls is not given here.

Key:
[1] = Activation of calcium influx into mouse splenocytes at 100 ug/ml relative to control; type: functional, cell-based; settings: Splenocyte
Ehrlich = experiment: Induction of apoptosis in mouse Ehrlich carcinoma cells at 100 ug/ml; type: functional, cell-based

Structure (SMILES)	Activity [1]	Activity (Ehrlich)
CC(C)=CCC[C@@H](C)[C@H]1CC[C@@]2(C(=O)O)C3=C(CC[C@]12C)[C@@]1(C)CC[C@H](O[C@@H]2OC[C@H](O)[C@H](O)[C@H]2O[C@@H]2O[C@H](CO)[C@H](O)[C@H](O)[C@H]2O)C(C)(C)[C@@H]1CC3	130%	
C=C(C)[C@@H](O)CC[C@@H](C)[C@H]1CC[C@@]2(C(=O)O)C3=C(CC[C@]12C)[C@@]1(C)CC[C@H](O[C@@H]2OC[C@H](O)[C@H](O)[C@H]2O[C@@H]2O[C@H](CO)[C@H](O)[C@H](O)[C@H]2O)C(C)(C)[C@@H]1CC3		Active
C=C(CC[C@@H](C)[C@H]1CC[C@@]2(C(=O)O)C3=C(CC[C@]12C)[C@@]1(C)CC[C@H](O[C@@H]2OC[C@H](O)[C@H](O)[C@H]2O[C@@H]2O[C@H](CO)[C@H](O)[C@H](O)[C@H]2O)C(C)(C)[C@@H]1CC3)C(C)C	130%	
